Reference: PMC8232621, “Antimicrobial Activity of a Library of Thioxanthones and Their Potential as Efflux Pump Inhibitors” (Pharmaceuticals, 2021)
Several values for one entry are separate records, joined by “and”; a condition that tells them apart may be missing. Equal values may be shown once.

Legend:
SE03 [1] = test: Real-time ethidium bromide accumulation assay (efflux pump inhibition); assay type: cell-based, Salmonella enterica serovar Typhimurium SL1344; conditions: compounds 50 µM (compound 12 at 17 µM), CCCP 25 µM, minute 60, EB 1 µg/mL
Description: (§1) The relative fluorescence index (RFI) was calculated based on the means of relative fluorescence units, and theses RFIs are depicted in Table 4.
(§2) The compounds were evaluated for their ability to inhibit the efflux of EB, an efflux pump substrate, in Salmonella enterica serovar Typhimurium SE03 and S. aureus 272123 strains, through real-time fluorimetry, monitoring the intracellular accumulation of EB, an efflux pump substrate. This was determined by the automated method using a CLARIOstar Plus plate reader (BMG Labtech, Ortenberg, Germany). Reserpine and CCCP were applied at 25 µM as positive controls, and the solvent DMSO was applied at 1% v/v. The bacterial strains were incubated in an appropriate culture media (TSB–S. aureus 272123; LB-B–SE03) at 37 °C until they reached an optical density (OD) of 0.6 at 600 nm. The culture was centrifuged at 13,000× g for 3 min, and the pellet was washed and resuspended with phosphate buffered saline (PBS, pH 7.4). The suspension was centrifuged again in the same conditions and resuspended in PBS.
(§3) Then, 50 µL of this solution were transferred into a 96-well black microtiter plate (Greiner Bio-One Hungary Kft, Mosonmagyaróvár, Fertősor, Hungary), and 50 µL of bacterial suspension (OD600 = 0.6) were added to each well. The plates were placed into the CLARIOstar plate reader, and the fluorescence was monitored at excitation and emission wavelengths of 530 nm and 600 nm, respectively, every minute for one hour on a real-time basis. From the real-time data, the activity of the compounds, namely the relative fluorescence index (RFI) of the last time point (minute 60) of the EB accumulation assay, was calculated according to the following equation:(1) RFI=RFtreated−RFuntreated/RFuntreated where RFtreated is the relative fluorescence (RF) at the last time point of EB accumulation curve in the presence of the compound, and RFuntreated is the RF at the last time point of the EB accumulation curve of the untreated control, having only the solvent (DMSO) control. The accumulation curves were designed using Microsoft Excel®. The samples were tested in triplicate, and the RFI presented comes from the average of these three values. The accumulation graphs present the mean of the RF at the last time point. The standard deviation (SD) was calculated automatically and included in the RF graphs.

E. coli SA/2 = test: Synergy with cefotaxime (antibiotic MIC in presence of compound); assay type: cell-based
From the text: (§4) The referred library of thioxanthones was initially tested for their antimicrobial activity against six bacterial strains: the Gram-negative Escherichia coli ATCC 25922, Pseudomonas aeruginosa ATCC 27853 and Salmonella enterica serovar Typhimurium SL1344 (SE03), with the acrA gene deleted, and the Gram-positive Staphylococcus aureus ATCC 29213, Enterococcus faecalis ATCC 29212 and the methicillin and ofloxacin-resistant clinical isolate S. aureus 272123. For the synergy assay, two clinically relevant isolates were used: the extended-spectrum β-lactamase (ESBL)-producing E. coli SA/2 [23] and the vancomycin-resistant E. faecalis (VRE) B3/101 [23]. The antibiotics used were cefotaxime (CTX) and vancomycin (VAN), respectively.
The combined effect of the compounds and clinically relevant antimicrobial drugs was evaluated by determining the antibiotic’s MIC in the presence of each compound. […] The antibiotic tested was serially diluted, whereas the concentration of each compound was kept fixed. […]

S. aureus 272123 [2] = test: Antibacterial activity, broth microdilution MIC; assay type: cell-based; conditions: Staphylococcus aureus, 272123, read-out: Minimum Inhibitory Concentration (MIC)
From the text: as §4
(§5) The minimum inhibitory concentration (MIC) for each compound was determined by broth microdilution method in a 96-well plate according to the Clinical and Laboratory Standard Institute (CLSI) guidelines. The medium used was MHB II. The concentrations tested ranged from 100 µM to 0.195 µM and were prepared from a stock solution of 10 mM in DMSO, for S. aureus 272123 and SE03; for the other strains, the concentrations tested ranged from 64 µg/mL to 4 µg/mL and were prepared from a stock solution of 10 mg/mL in DMSO. DMSO was used in subinhibitory concentrations (1% v/v). The MIC was determined by visual inspection.

S. aureus 272123 [3] = test: Real-time ethidium bromide accumulation assay (efflux pump inhibition); assay type: cell-based, Staphylococcus aureus; set-up: key: RFI = (RFtreated − RFuntreated)/RFuntreated at minute 60; conditions: compounds 50 µM, reserpine 25 µM, minute 60, EB 1 µg/mL
Description: as §1, §2, §3

EZF + CV026 = test: Quorum sensing inhibition assay (pigment production), parallel inoculation; assay type: cell-based; conditions: disk with 8 µL of 10 mM solution, read-out: Quorum Sensing Inhibition (mm) ± SD
Description: (§6) Concerning the QS inhibition assay, the sensor strain Chromobacterium violaceum CV026 and the AHL producer strain Sphingomonas paucimobilis Ezf 10-17 (EZF) were inoculated as parallel lines, and the AHL producers Chromobacterium violaceum wild-type 85 (wt85) and Serratia marcescens AS-1 were inoculated as a single line. The interaction between the strains and compounds 2–18 was evaluated as the reduction of pigment production, in millimeters (mm) (Table 5) with promethazine (PMZ) as a positive control.
(§7) The QS inhibitory effect of the compounds was examined on the EZF and the sensor CV026 strains, on the wt85 strain, and on S. marcescens. The method used was the parallel inoculation method, where pair combinations of the used sensor strain CV026 and the N-acyl-homoserine lactone (AHL) producing strain EZF were inoculated directly onto the LB*-A agar surface in parallel, at an approximate distance of 5 mm from each other. S. marcescens AS-1 and wt85 were inoculated as a single line. Filter paper disks (7 mm in diameter) were placed on the center of the inoculated line(s) and impregnated with 8 µL of a solution of 10 mM of the compounds. […] The agar plates were incubated at room temperature (20 °C) for 24−48 h. The QS inhibition was accessed visually, through the inhibition of pigment production. The discolored, but intact, bacterial colonies were measured with a ruler.

S. aureus 272123 [4] = test: Inhibition of biofilm formation (crystal violet); assay type: cell-based, Staphylococcus aureus; conditions: Staphylococcus aureus; S. aureus 272123; compounds 100 µM (compound 12 at 50 µM); 48 h; read-out: Biofilm Inhibition (%) ± SD
Description: Efflux mechanisms are one of the factors that can lead to biofilm-mediated resistance, along with slow growth and reduced penetration due to production of extracellular polysaccharides. […] Additionally, they can also modulate QS, through an influence in the transport of QS signal molecules. Thioxanthones 2–18 were tested for their potential for inhibiting biofilm formation by S. aureus ATCC 29213 and the multi-resistant S. aureus 272123. The biofilm inhibition, presented in percentage (%), was calculated based on the mean of absorbance units. Reserpine, which has previously been described as both an efflux pump inhibitor and an inhibitor of biofilm formation in Gram-positive bacteria was used as control in both strains.
The thioxanthone derivatives were tested for their ability to decrease the formation of biofilm. The bacterial strains used were the Gram-positive S. aureus […] and S. aureus 272123. The detection of the biofilm formation was carried out using the dye crystal violet (CV; 0.1% v/v). The initial inoculum was incubated in TSB overnight, and then diluted to an OD600 of 0.1. […] This meant that compound 12 was added at 50 µM, while the rest of the compounds were added at the concentration of 100 µM. The final volume in each well was 200 µL. Reserpine was used as a positive control, as it was the same compound used in the efflux pump inhibition assay and it has shown activity in the inhibition of biofilm formation in S. aureus strains. The plates were incubated at 30 °C for 48 h, with gentle stirring (100 rpm). After this incubation period, the TSB medium was discarded, and the plates were washed with tap water to remove unattached cells. Afterwards, 200 µL of a 0.1% v/v CV solution were added to the wells and incubated for 15 min at room temperature. Then, the CV solution was removed from the wells, and the plates were washed again with tap water, and 200 µL of a 70% ethanol solution was added to the wells. The biofilm formation was determined by measuring the OD600 using a Multiscan EX ELISA plate reader (Thermo Labsystems, Cheshire, WA, USA). The anti-biofilm effect of the compounds was expressed in the percentage (%) of decrease of biofilm formation.

SE03 [5] = test: Antibacterial activity, broth microdilution MIC; assay type: cell-based, Salmonella enterica serovar Typhimurium SL1344; conditions: Salmonella enterica, read-out: Minimum Inhibitory Concentration (MIC)
From the text: as §4, §5

S. marcescens = test: Quorum sensing inhibition assay (pigment production); assay type: cell-based, Serratia marcescens AS-1; conditions: Serratia marcescens, read-out: Quorum Sensing Inhibition (mm) ± SD
Description: as §6, §7

wt85 = test: as above; assay type: cell-based, Chromobacterium violaceum wild-type 85; conditions: Chromobacterium violaceum, read-out: Quorum Sensing Inhibition (mm) ± SD
Description: as §6, §7

S. aureus ATCC 29213 = test: Inhibition of biofilm formation (crystal violet); assay type: cell-based; conditions: Staphylococcus aureus, ATCC29213, 48 h, S. aureus ATCC 29213, compounds 100 µM (compound 12 at 50 µM), read-out: Biofilm Inhibition (%) ± SD
[6] = Cytotoxicity in NIH/3T3 cell line (MTT assay); assay type: cell-based; conditions: mouse, NIH/3T3 mouse fibroblast cells, read-out: IC50 (µM) ± SD, cytotoxicity
Description: Before each cytotoxicity assay using this cell line, cells were seeded in untreated 96-well flat-bottom microtiter plates, following a 4-hour incubation period in a humidified atmosphere (5% CO2, 95% air) at 37 °C [47]. […] Prior to the assay, the cells were seeded for 4 h using 1 × 10^4 cells/well. […] The plates were incubated for 24 h, after which a solution of MTT in PBS was added to each well and incubated for another 4 h. After this, 100 μL of SDS (10% in a 0.01 M HCl solution) was added to each well and incubated overnight at 37 °C. Doxorubicin was used as a positive control. Cell growth was determined in quadruplicate by measuring OD at λ = 540 nm (reference 630 nm) in a Multiscan EX ELISA reader (Thermo Labsystems, Cheshire, WA, USA). […] (2) 100−ODsample−ODmedium control/ODcell control−ODmedium control×100 […]

E. faecalis B3/101 = test: Synergy with vancomycin (antibiotic MIC in presence of compound); assay type: cell-based, Enterococcus faecalis
From the text: as §4
The combined effect of the compounds and clinically relevant antimicrobial drugs was evaluated by determining the antibiotic’s MIC in the presence of each compound. […] The antibiotic tested was serially diluted, whereas the concentration of each compound was kept fixed. In the case of compound 12, the concentration used was 8 µg/mL. For all other compounds, the concentration used was 64 µg/mL. Antibiotic MICs were determined as described above.

SMILES	RFI ± SD (SE03 [1])	CTX MIC (antibiotic alone) (E. coli SA/2)	MIC (S. aureus 272123 [2])	RFI ± SD (S. aureus 272123 [3])	zone of inhibition at 10000 µM (EZF + CV026)	inhibition at 100 µM (S. aureus 272123 [4])	MIC (SE03 [5])	zone of inhibition at 10000 µM (S. marcescens)	zone of inhibition at 10000 µM (wt85)	inhibition at 100 µM (S. aureus ATCC 29213)	IC50 at 24 h [6]	VAN MIC (antibiotic alone) (E. faecalis B3/101)
N#CC(C#N)=NNc1cccc(Cl)c1 [CCCP, carbonyl cyanide 3-chlorophenylhydrazone, reference compound]	0.23 ± 0.04	–	–	–	–	–	–	–	–	–	–	–
CO/N=C(\C(=O)N[C@@H]1C(=O)N2C(C(=O)O)=C(COC(C)=O)CS[C@H]12)c1csc(N)n1 [CTX, cefotaxime, reference compound]	–	1124 µM and 512 µg/mL	–	–	–	–	–	–	–	–	–	–
CCCOc1ccc(OC)c2c(=O)c3ccccc3sc12 [Compound 4]	−0.10 ± 0.05	–	> 100 µM	0.11 ± 0.26	0 mm	47.9 ± 1.08%	> 100 µM	0 mm	0 mm	0.17 ± 0.83%	–	–
CCCOc1ccc(NCCc2nc3ccccc3[nH]2)c2c(=O)c3ccccc3sc12 [Compound 5]	−0.20 ± 0.01	–	> 100 µM	−0.13 ± 0.04	0 mm	0%	> 100 µM	0 mm	0 mm	0.37 ± 0.47%	–	–
CCCOc1ccc(NCCc2ccc([N+](=O)[O-])cc2)c2c(=O)c3ccccc3sc12 [Compound 6]	−0.20 ± 0.01	–	> 100 µM	0.09 ± 0.11	0 mm	0%	> 100 µM	0 mm	0 mm	0%	–	–
CCCOc1ccc(N2CCN(C(C)=O)CC2)c2c(=O)c3ccccc3sc12 [Compound 7]	0.49 ± 0.11	–	> 100 µM	−0.10 ± 0.02	30 ± 0.5 mm	47.1 ± 7.54%	> 100 µM	0 mm	0 mm	0%	–	–
COc1cccc2c1C(=O)c1c(O)c3c(c(O)c1C2=O)C[C@@](O)(C(=O)CO)C[C@@H]3O[C@H]1C[C@H](N)[C@H](O)[C@H](C)O1 [Doxorubicin, doxorubicin, reference compound]	–	–	–	–	–	–	–	–	–	–	12.1 ± 0.81 µM	–
CC(CN1c2ccccc2Sc2ccccc21)N(C)C (stereo not drawn) [PMZ, promethazine, reference compound]	–	–	–	–	41 ± 0.5 mm	–	–	18 ± 0.8 mm	40 ± 0.1 mm	–	–	–
COC(=O)[C@H]1[C@H]2C[C@@H]3c4[nH]c5cc(OC)ccc5c4CCN3C[C@H]2C[C@@H](OC(=O)c2cc(OC)c(OC)c(OC)c2)[C@@H]1OC [Reserpine, reserpine, reference compound]	–	–	–	0.50 ± 0.04	–	–	–	–	–	30.4%	–	–
CN[C@H](CC(C)C)C(=O)N[C@H]1C(=O)N[C@@H](CC(N)=O)C(=O)N[C@H]2C(=O)N[C@H]3C(=O)N[C@H](C(=O)N[C@H](C(=O)O)c4cc(O)cc(O)c4-c4cc3ccc4O)[C@H](O)c3ccc(c(Cl)c3)Oc3cc2cc(c3O[C@@H]2O[C@H](CO)[C@@H](O)[C@H](O)[C@H]2O[C@H]2C[C@](C)(N)[C@H](O)[C@H](C)O2)Oc2ccc(cc2Cl)[C@H]1O [VAN, vancomycin]	–	–	–	–	–	–	–	–	–	–	–	707 µM and 1024 µg/mL
